# “Also recorded” adds a separate entry of the source.
# Legend:
# CD4+ human T cells = assay: Human Autoimmune and Inflammatory Response Gene Array, anti-CD3-stimulated T cells with or without antibiotic; type: cell-based; details: 120 min anti-CD3; for % decrease by Cef: cefuroxime 50 μg/ml, ±SD, relative to control
# Procedure: T cells were purified from the peripheral bloods of healthy human donors (Blood Bank, Sheba Medical center). The whole blood was incubated (20 min, 22° C.) with RosetteSep™ human T cell enrichment mixture (StemCell Technologies, Vancouver, Canada). The remaining unsedimented cells were then loaded onto lymphocyte separation medium (ICN Biomedicals, Irvine, Calif.), isolated by density centrifugation, and washed with PBS. […] In a second round of purification, CD3^+ T cells were labeled for selection with a magnetically coupled mAb against CD4 (Miltenyi Biotec, Auburn, Calif.).
# Human CD4 T cells were isolated as described, and incubated in 24 well plates (Nunc), 4×10^6 cells/ml with plate bound anti-human CD3 (OKT3) at 2 μg/ml. The stimulation was performed in RPMI medium supplemented with 0.1% BSA. […] RNA was extracted from samples and used to prepare probes for gene array in accord with the manufacturer's instructions (SuperArray Bioscience, Frederick, Md.). Adequate labeling of the probes was tested before hybridization. Three healthy donors were tested in stimulation with cefuroxime. The membranes were analyzed online with the Image Data Acquisition and Expression Analysis (SuperArray Bioscience).
# The Human Autoimmune and Inflammatory Response Gene Array (SuperArray Bioscience corporation, Frederick, Md., USA) was used for analysis of gene expression by the T cells. This array contains 367 genes including cytokines, chemokines and their receptors, transcription factors and signaling proteins. […] Analysis of the results was performed using the GEArray analysis program. […] To verify the results detected by the gene array study, a panel of six genes was designed and tested by real-time PCR: CCR4, ACVR2, JAK1, STAT4, TLR2 and NFKBIE. The cDNA that was used was prepared from the same RNA used for the gene array experiment.
# [1] = tested on: encephalitogenic BP10 line; assay: Adoptive EAE: BP10 T-cell line stimulated in vitro with test substance, then injected into naive rats; type: in vivo, rat
# Procedure: Antigen-specific T-cell lines were established from lymph node cells that had been stimulated with myelin basic protein (MBP; 10 μg/ml) for 3 days in stimulation medium as described below. Following stimulation, the T-cell blasts were isolated on LYMPHOPREP™ (Nycomed Pharma, Oslo, Norway) and seeded in propagation medium. Propagation medium was identical to stimulation medium without autologous serum, but supplemented with fetal calf serum 10% and T-cell growth factors from the supernatant of Con A stimulated spleen cells 10% (Mor et al. (1990) J Clin Invest, 85, 1594-1598). Animals were injected intra-peritoneally with 107 MBP-stimulated T cells, following 6-8 cycles of in vitro stimulations. It is known that MBP-reactive lines undergo a reduction in pathogenicity after 6 or more in vitro stimulations. In some experiments the BP10 line was stimulated with phorbol myristate acetate (PMA; 50 ng/ml) and ionomycin (500 ng/ml) for 3 days in stimulation medium, without antigen-presenting cells.
# Active EAE was induced by subcutaneous injection of 25 μg guinea-pig MBP (GpMBP) in complete Freund's adjuvant (CFA). […] Adoptive EAE was transferred by intra-peritoneal injection of guinea-pig MBP-activated cells of the BP10 line as described in Mor et al. (1993) J Clin Invest, 92, 2199-2206. […] Clinical scoring was: +1, paralysis of tail; +1.5, paresis of posterior paws and ataxia; +2, paraplegia; +3, paralysis extending to thoracic spine; +4, a moribund state.
# Treatment with cefuroxime in vivo could affect many different host agents involved in EAE or AA as well as influencing the rats' bacterial flora. To test whether the antibiotic might directly modify the behavior of effector T cells, an encephalitogenic T-cell line was stimulated in the presence or absence of cefuroxime in vitro. The weakly encephalitogenic BP10 line was used, and was stimulated for 3 days with MBP in the presence or absence of cefuroxime (50 μg/ml). The activated T cells were then washed to remove the antibiotic, the T cells were injected intra-peritoneally into naïve recipient rats (10^7 per rat), and EAE was scored. The BP10 line at later stimulations was used, when its pathogenic potential is reduced, allowing to detect both suppression and enhancement of disease. […] To rule out antigen presenting cells (APC) as the target of the beta-lactam antibiotic, the encephalitogenic BP10 line was stimulated without APC using PMA (50 ng/ml) and Ionomycin (500 ng/ml) in the presence or absence of cefuroxime.
# Additional beta-lactam antibiotics were tested for their effect on the adoptive transfer of EAE.
# A control group was injected with the untreated line.
# [2] = tested on: active experimental autoimmune encephalomyelitis (EAE) in Lewis rats; assay: Actively induced EAE in rats, oral antibiotic treatment; type: in vivo, rat; details: oral cefuroxime Axetil in drinking water from day 7 post-induction, 50 mg/kg daily, versus the two control groups
compound,measurement,setting,value
CO/N=C(\C(=O)N[C@@H]1C(=O)N2C(C(=O)O)=C(COC(N)=O)CS[C@H]12)c1ccco1 [cefuroxime],number of genes down-regulated,"CD4+ human T cells; array of 367 genes, 50 μg/ml",Fifty-seven
same,% decrease by Cef,CD4+ human T cells; gene ACTB,49 ± 11%
same,% decrease by Cef,CD4+ human T cells; gene ACVR1,42 ± 0.7%
same,% decrease by Cef,CD4+ human T cells; gene ACVR2,60 ± 14.8%
same,% decrease by Cef,CD4+ human T cells; gene CCL5,21 ± 5.6%
same,% decrease by Cef,CD4+ human T cells; gene CCL11,18 ± 6.6%
same,% decrease by Cef,CD4+ human T cells; gene CCR4,39 ± 2%
same,% decrease by Cef,CD4+ human T cells; gene CCR6,53 ± 5.6%
same,% decrease by Cef,CD4+ human T cells; gene CCR7,38 ± 8.1%
same,% decrease by Cef,CD4+ human T cells; gene CD28,51 ± 2.1%
same,% decrease by Cef,CD4+ human T cells; gene CD40LG,33 ± 7.1%
same,% decrease by Cef,CD4+ human T cells; gene CREB1,19 ± 4.9%
same,% decrease by Cef,CD4+ human T cells; gene CREBBP,40 ± 9.9%
same,% decrease by Cef,CD4+ human T cells; gene CXCL10,39 ± 3%
same,% decrease by Cef,CD4+ human T cells; gene EGR3,38 ± 2.8%
same,% decrease by Cef,CD4+ human T cells; gene GFI1,45 ± 14%
same,% decrease by Cef,CD4+ human T cells; gene HRAS,30 ± 9.8%
same,% decrease by Cef,CD4+ human T cells; gene IL1B,54 ± 7.0%
same,% decrease by Cef,CD4+ human T cells; gene IL2RB,50 ± 9.9%
same,% decrease by Cef,CD4+ human T cells; gene IL2RG,57 ± 9.8%
same,% decrease by Cef,CD4+ human T cells; gene IL9R,27.5 ± 3%
same,% decrease by Cef,CD4+ human T cells; gene IL16,50 ± 7.8%
same,% decrease by Cef,CD4+ human T cells; gene IRAK1,44 ± 2.1%
same,% decrease by Cef,CD4+ human T cells; gene JAK1,53 ± 13.4%
same,% decrease by Cef,CD4+ human T cells; gene JUN,49 ± 2.2%
same,% decrease by Cef,CD4+ human T cells; gene LTA,17 ± 10%
same,% decrease by Cef,CD4+ human T cells; gene MAP2K4,52 ± 14.1%
same,% decrease by Cef,CD4+ human T cells; gene MAP3K1,53 ± 12%
same,% decrease by Cef,CD4+ human T cells; gene MAP3K2,36 ± 12%
same,% decrease by Cef,CD4+ human T cells; gene MAP3K7,46 ± 9.9%
same,% decrease by Cef,CD4+ human T cells; gene MAPK9,42 ± 10.9%
same,% decrease by Cef,CD4+ human T cells; gene NFKB1,43 ± 3.5%
same,% decrease by Cef,CD4+ human T cells; gene NFKB2,53 ± 10.6%
same,% decrease by Cef,CD4+ human T cells; gene NFKBIE,63 ± 11%
same,% decrease by Cef,CD4+ human T cells; gene NFKBIL1,54 ± 12.5%
same,% decrease by Cef,CD4+ human T cells; gene PAK1,40 ± 2.4%
same,% decrease by Cef,CD4+ human T cells; gene PIN1,45 ± 12.1%
same,% decrease by Cef,CD4+ human T cells; gene RANBP5,33 ± 3.5%
same,% decrease by Cef,CD4+ human T cells; gene REL,45 ± 1.9%
same,% decrease by Cef,CD4+ human T cells; gene RFX5,36 ± 4.2%
same,% decrease by Cef,CD4+ human T cells; gene RFXAP,27 ± 12%
same,% decrease by Cef,CD4+ human T cells; gene SDF2,28 ± 12%
same,% decrease by Cef,CD4+ human T cells; gene SELL,46 ± 7.0%
same,% decrease by Cef,CD4+ human T cells; gene SMAD4,47 ± 7.0%
same,% decrease by Cef,CD4+ human T cells; gene SMAD7,47 ± 4.2%
same,% decrease by Cef,CD4+ human T cells; gene SP3,39 ± 9.9%
same,% decrease by Cef,CD4+ human T cells; gene SRF,38 ± 1.9%
same,% decrease by Cef,CD4+ human T cells; gene STAT1,32 ± 11%
same,% decrease by Cef,CD4+ human T cells; gene STAT4,47 ± 9.3%
same,% decrease by Cef,CD4+ human T cells; gene STAT6,47 ± 7.9%
same,% decrease by Cef,CD4+ human T cells; gene TGFBR3,44 ± 3.5%
same,% decrease by Cef,CD4+ human T cells; gene TGIF,43 ± 3.5%
same,% decrease by Cef,CD4+ human T cells; gene TLR2,52 ± 14%
same,% decrease by Cef,CD4+ human T cells; gene TNFRSF11,43 ± 2%
same,% decrease by Cef,CD4+ human T cells; gene TNFα,29 ± 8.5%
same,% decrease by Cef,CD4+ human T cells; gene TRAF5,43 ± 2.2%
same,% decrease by Cef,CD4+ human T cells; gene TRAF6,43 ± 3.5%
same,% decrease by Cef,CD4+ human T cells; gene YY1,23 ± 9.1%
same,severity of adoptive EAE in recipient rats,"[1]; BP10 line stimulated 3 days with MBP in presence of 50 μg/ml antibiotic, 10^7 cells per rat",markedly enhanced the manifestations of EAE
same,severity of adoptive EAE in recipient rats,"[1]; BP10 line stimulated 3 days with MBP in presence of 50 μg/ml antibiotic, 10^7 cells per rat, listed as Cefuroxime",enhances the pathogenicity of the BP10 line
same,severity of adoptive EAE in recipient rats,[1]; BP10 line stimulated without APC using PMA (50 ng/ml) and Ionomycin (500 ng/ml),significantly more severe
same,severity of adoptive EAE in recipient rats,"[1]; dose-response, BP10 line stimulated with 5 μg/ml",ineffective
same,severity of adoptive EAE in recipient rats,"[1]; dose-response, BP10 line stimulated with 25 μg/ml",enhancing effect similar to that of 50 μg/ml
same,severity of active EAE,[2],significantly more severe EAE; also recorded: increases the severity of actively induced EAE

# — patent US9474744B2, “Beta-lactam compounds for treating diabetes” (STEM CELL MEDICINE LTD., priority 2011, dated 2016)
